Assay results from patent US20260207620A1, “SOLID DISPERSION OF COMPOUND HAVING P2X4 RECEPTOR ANTAGONISTIC ACTION” (NIPPON CHEMIPHAR CO., LTD., priority 2023, published 2026).

Assays:
[1] = PK test of compound F2 and its solid dispersion, oral, fasted male Wistar rats; type: in vivo; conditions: Wistar (Crlj:WI), rat, compound F2 in plasma, 10 mg/kg (as compound F2) p.o., n=3
Experimental: Fasted male rats (8 weeks old, Wistar (Crlj:WI), Charles River Laboratories Japan, Inc.) were orally administered a crystalline form of the compound F2 suspended in a 1% methylcellulose aqueous solution or a solid dispersion comprising the compound F2 suspended in water for injection. The dosage of the compound F2 in each group was 10 mg/kg (n=3 in each group). Blood samples were collected in a time-dependent manner at 0.5, 1, 2, 4, 6, 8, and 24 hours after oral administration. The concentration of the compound F2 in the obtained plasma was measured by LC-MS/MS (MS/MS: API4000, SCIEX, LC: LC-20AD series, Shimadzu Corporation). Tmax, Cmax, and AUClast were calculated from the plasma concentration transition (Table 5).

solubility in water = type: physicochemical
[2] = PK test, solid dispersions E and B of compound F48, single oral dose, fasted male Wistar rats; type: in vivo; conditions: Wistar (Crlj:WI), rat, compound F48 in plasma, 10 mg/kg (as compound F48) p.o. once, n=3
Experimental: Solid dispersions E and B were prepared using a rotary evaporator according to the following method. The compound F48 was dissolved in THF to result in 2.5 mg/mL. By the same procedure as above, each polymer was prepared to result in 25 mg/mL. Next, the compound F48 solution was added to the polymer solution with stirring such that the weight ratio between the compound F48 and the carrier was 1:25. The resulting mixture was transferred to a recovery flask, and the organic solvent was then removed using a rotary evaporator (Yamato Scientific Co., Ltd., distillation apparatus). The recovery flask was transferred to a desiccator and dried under reduced pressure using a vacuum pump for approximately 16 hours, thereby obtaining solid dispersions E and B. […]
Blood samples were collected in a time-dependent manner before oral administration and at 0.5, 1, 3, 5, 8, and 24 hours after oral administration. The concentration of the compound F48 in the obtained plasma was measured by HPLC (Hitachi High-Technologies Corporation). The time to reach the maximum plasma concentration (Tmax), the maximum plasma concentration (Cmax), and the area under the plasma concentration-time curve (AUClast) were calculated from the plasma concentration transition (Table 2).

SMILES | AUC(0-t) [1] | Cmax [1] | Tmax [1] | solubility in water (solubility in water) | Cmax [2]
O=C1CC(=O)N(c2ccc(NC(=O)c3ccccc3C(F)(F)F)cc2)c2ccc3ccccc3c2N1 [Compound F2, 5-[4-[2-(trifluoromethyl)benzoyl]aminophenyl]-1H-naphtho [1,2-b][1,4]diazepine-2,4 (3H,5H)-dione] | 5.71 ± 0.52 µg·h/mL | 0.386 ± 0.056 µg/mL | 4 h | poorly soluble in water | 
O=C1CC(=O)N(c2ccc(NC(=O)c3ccccc3I)cc2)c2ccc3ccccc3c2N1 [Compound F48, 5-[4-(2-iodobenzoylamino)phenyl]-1H-naphtho [1,2-b][1,4]diazepine-2,4 (3H,5H)-dione] |  |  |  | poorly soluble in water | 
CCc1ccccc1C(=O)Nc1ccc(N2C(=O)CC(=O)Nc3c2ccc2ccccc32)cc1 [Compound F57, 5-[4-[(2-ethylbenzoyl)amino]phenyl]-1H-naphtho [1,2-b][1,4]diazepine-2,4 (3H,5H)-dione] |  |  |  | poorly soluble in water | 
O=C1CC(=O)N(c2ccc(NC(=O)c3ccccc3I)cc2)c2ccc3ccccc3c2N1 [Control, 5-[4-(2-iodobenzoylamino)phenyl]-1H-naphtho [1,2-b][1,4]diazepine-2,4 (3H,5H)-dione] |  |  |  |  | < 0.025 µg/mL
